Data reported in patent publication US20230204587A1, “NOVEL DIAGNOSTIC MARKER FOR PROSTATE CANCER” (URTESTE S.A., priority 2020, published 2023).
Starred links: 1 amine or outer side, 2 acyl side, 3 side chain; linkers in the order of their positions; H or OH if unused. Non-standard residues stand in square brackets, D forms with d. No end group written: not given here. *: point of attachment. Benzoyl(5-NH,2-NO2) = O=C(c1cc(N[*:1])ccc1[N+](=O)[O-])[*:2]; pNA = O=[N+]([O-])c1ccc(N*)cc1; 2Abz = Nc1ccccc1C(=O)O

Assays:
[1] = test system: proteolytic enzymes in urine; assay: Chromogenic substrate hydrolysis in urine samples (absorbance at 405 nm, 96-well plate); assay type: biochemical, human; conditions: for rate of hydrolysis of substrate (increase in absorbance over time): 200 mM Tris-HCl pH 8.0, 37° C., 60 minutes, 405 nm
Protocol: The study on the application of new compounds was performed on a group of 25 patients diagnosed with prostate cancer. For this purpose, the compound with formula: ABZ-Trp-Glu-Gly-Asn-ANB-NH2 or ABZ-Trp-Glu-Gly-Asn-pNA was dissolved in dimethyl sulfoxide (at a concentration of 0.5 mg/mL); 50 μL of this solution was mixed with 120 μl buffer (200 mM Tris-HCl, pH 8.0) and 80 μL of urine of a person with prostate cancer. The measurement was made in a 96-well plate designed for measuring absorbance, and each sample was analysed in triplicate at 37° C. The duration of the measurement was 60 minutes. During the measurement, the wavelength characteristic of the released chromophore (ANB-NH2 or pNA) was monitored at 405 nm (range 380-430 nm).

[2] = test system: proteolytic enzymes in urine; assay: RP HPLC analysis of substrate hydrolysis in urine from a person diagnosed with prostate cancer; assay type: biochemical, human; conditions: randomly selected urine from a person diagnosed with prostate cancer
Protocol: A: ABZ-Trp-Glu-Gly-Asn-ANB-NH2 substrate in 200 mM Tris-HCl buffer, pH 8.0. B: Hydrolysis of ABZ-Trp-Glu-Gly-Asn-pNA substrate in urine of patients diagnosed with prostate cancer.

Substance: ABZ-Trp-Glu-Gly-Asn-ANB-NH2 ([2Abz]WEGN-{Benzoyl(5-NH,2-NO2)-NH2}) [Compound 1, chromogenic peptide; ABZ is 2-aminobenzoic acid, ANB-NH2 is amide of 5-amino-2-nitrobenzoic acid]
- rate of hydrolysis of substrate (increase in absorbance over time) ([1]; urine from healthy individuals): does not lead to an increase in absorbance
- absorbance increase on incubation with urine from various kinds of malignancies ([1]; urine from pancreas, liver, bowel, lung, bile duct, stomach and prostate cancer patients): absorbance increase is observed only for urine of patient diagnosed with prostate cancer
- rate of hydrolysis of substrate (increase in absorbance over time) ([1]; urine of patients diagnosed with prostate cancer (samples 1-25)): all samples 1-25 disintegrated
- hydrolysis products by RP HPLC [2]: break down into the ABZ-Trp-Glu-Gly-Asn-OH peptide fragment and chromophore

Substance: ABZ-Trp-Glu-Gly-Asn-pNA ([2Abz]WEGN-pNA) [Compound 2, chromogenic peptide; ABZ is 2-aminobenzoic acid, pNA is para-nitroaniline]
- hydrolysis products by RP HPLC [2]: break down into the ABZ-Trp-Glu-Gly-Asn-OH peptide fragment and chromophore
